Here are results for three molecules from US20050215567A1, “1-[2H-1-benzopyran-2-one-8-yl]-piperazine derivatives for the treatment of pain” (SOLVAY PHARMACEUTICALS B.V., priority 2004, published 2005).

Entries after “also recorded” stand apart in the source; their conditions may differ.

Data set [1] deals with hot plate latency. Nature of the data set: Hot plate test (acute pain model). The format is in vivo, mice. Particulars: for Latency of animal to remove itself from the hotplate seconds ± STDerr: 30 minutes after administration; for analgesic effect in the hot plate test (in words): i.p., morphine 7.5 mg/kg, compound 1 0.1 mg/kg, sumatriptan 10 mg/kg. How it is done: Hot plate test in mouse or rat according to Eddy and Leimbach (J. Pharmacol. Exp. Ther. 1953, 107: 385-393): Mice or rats are placed onto a hot metal plate maintained at 54° C. for mice or 52° C. for rats surrounded by a Plexiglas cylinder (Height: 13 cm; Diameter: 19 cm). The latency to the first foot-lick is measured (maximum: 30 seconds).
Compound 1 and other compounds were tested on the hotplate 30 minutes after intraperitoneal administration. A description of the method is given above.
(In general: In hot-plate and tail-flick tests a longer latency is read as antinociception.)

The subject of data set [2] is acetic acid induced writhing. The experiment in a line: Acetic acid writhing test (acute pain model). Format: in vivo, mice. To be noted: Mus musculus, po. As to the method: Phenylbenzoquinone and acetic writhing tests in mice follow the methods described by Hendershot et al (J. Pharmacol. Exp. Ther. 1959, 125: 237-240): Mice are injected with phenylbenzoquinone (PBQ) (1.25 mg/kg ip.) or acetic acid (0.5% ip.). This treatment induces a recognizable writhing response in control animals. The number of writhes is counted for 10 minutes beginning 5 minutes after injection of PBQ or acetic acid.
(In general: In writhing tests, fewer writhes than in controls are read as antinociception.)

The nature of data set [3]: Sedative effects after oral dosing. Format: in vivo. To be noted: dosages of up to 100 mg/kg p.o.

In general, ED50 refers to the dose that gives a 50% effect, or the effect in half of the subjects.

For `Nc1cc2cccc(N3CCNCC3)c2oc1=O` [Compound 1, 3-amino-8-(1-piperazinyl)-2H-1-benzopyran-2-one], in data set [1] (0.1 mg/kg i.p.), the “Latency of animal to remove itself from the hotplate seconds ± STDerr” value (“Latency of animal to remove itself” for short) worked out at 8.4 ± 0.5 s. The ED50 came to 3.2 mg/kg in data set [1] (Mus musculus, po, read-out: ED50 hot plate test) and 1.82 mg/kg in data set [2]. Besides, the sedative effects result in data set [3] was “devoid of sedative effects”.
`CN1CC[C@]23c4c5ccc(O)c4O[C@H]2[C@@H](O)C=C[C@H]3[C@H]1C5` [morphine]: in data set [1] (7.5 mg/kg i.p.), the “Latency of animal to remove itself” value worked out at 7.8 ± 0.3 s. Further, the “analgesic effect in the hot plate test (in words)” value in data set [1] is “nearly doubles the latency”.
As to `CNS(=O)(=O)Cc1ccc2[nH]cc(CCN(C)C)c2c1` [sumatriptan], the “Latency of animal to remove itself” value in data set [1] (10 mg/kg i.p.) is 3.9 ± 0.3 s. Besides, the “analgesic effect in the hot plate test (in words)” value in data set [1] is “inactive”; in data set [1] (listed as Sumatriptan), “completely inactive”. In data set [1] (sumatriptan 10 mg/kg i.p. with compound 1 0.1 mg/kg i.p., P-value=0.0001, Wilcoxon test), the “antagonism of the analgesic effect of compound 1 in the hot plate test” value is “nearly completely antagonizes; also recorded: nearly completely blocked”.
